IC50 data for 23 molecules are collected here from US8273890B2 (4SC AG, priority 2007, dated 2012).

pIC50: −log10 of the molar value.

One may read the pIC50 as the negative decadic logarithm of the IC50, by convention in mol/L.

This experiment deals with T1, recombinant Plk1 protein (Homo sapiens, UniProt P53350).
T1 construct: histidine tag (N); made in house; host or cells: SF9 insect cells
T1 sequence (P53350 whole entry): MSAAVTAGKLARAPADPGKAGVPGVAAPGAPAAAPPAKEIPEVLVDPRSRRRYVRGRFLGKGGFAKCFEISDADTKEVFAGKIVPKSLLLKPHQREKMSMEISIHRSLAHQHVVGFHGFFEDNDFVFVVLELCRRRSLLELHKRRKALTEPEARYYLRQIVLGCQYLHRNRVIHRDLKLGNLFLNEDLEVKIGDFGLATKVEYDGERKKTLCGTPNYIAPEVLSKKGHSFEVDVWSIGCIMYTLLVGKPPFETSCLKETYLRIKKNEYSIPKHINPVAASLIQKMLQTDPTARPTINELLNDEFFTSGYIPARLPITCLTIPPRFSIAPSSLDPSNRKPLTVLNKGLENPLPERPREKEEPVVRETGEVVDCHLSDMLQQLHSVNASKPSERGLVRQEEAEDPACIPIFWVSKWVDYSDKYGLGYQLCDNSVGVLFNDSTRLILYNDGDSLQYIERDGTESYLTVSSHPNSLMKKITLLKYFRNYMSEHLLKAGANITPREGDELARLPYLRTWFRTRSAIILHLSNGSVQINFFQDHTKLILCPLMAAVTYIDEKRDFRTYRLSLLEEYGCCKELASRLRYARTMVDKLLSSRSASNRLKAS
Briefly: Plk1 kinase activity inhibition assay (33P-ATP, alpha casein substrate, flash plates). In kind it is biochemical. To be noted: enzymatic assay, 100 nM Li-ATP, 80 minutes at 30° C. Summed up:
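IC50 derived from radioactive flash-plate counts of 33P-labelled alpha casein after 80 min at 30 °C. Reaction: 100 nM 33P-containing ATP, 50–100 ng His-tagged Plk1 (SF9-expressed), 500 ng casein per well, HEPES pH 7.5 buffer with MgCl2/MnCl2.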
In the case of `CC(Oc1cc(-n2cnc3cnc(CN4CCN(C)CC4)cc32)sc1C(N)=O)c1ccccc1F` (centres unmarked) [Example 103, 3-[1-(2-fluorophenyl)ethoxy]-5-{6-[(4-methylpiperazin-1-yl)methyl]-1H-imidazo[4,5-c]pyridin-1-yl}thiophene-2-carboxamide], the pIC50 is 7.00 to 8.00.

Turning to `NC(=O)c1sc(-n2cnc3cnccc32)cc1OCc1ccc(C(F)(F)F)cc1` [Example 36, 5-(1H-imidazo[4,5-c]pyridin-1-yl)-3-{[4-(trifluoromethyl)benzyl]oxy}thiophene-2-carboxamide], the pIC50 was 6.00 to 7.00.

As to `N#Cc1ccccc1COc1cc(-n2cnc3cnccc32)sc1C(N)=O` [Example 39, 3-[(2-cyanobenzyl)oxy]-5-(1H-imidazo[4,5-c]pyridin-1-yl)thiophene-2-carboxamide], the pIC50 is 7.00 to 8.00.

With `C[C@@H](Oc1cc(-n2cnc3cnc(CN4CCN(CCO)CC4)cc32)sc1C(N)=O)c1ccccc1C(F)(F)F` [Example 61, 5-(6-{[4-(2-hydroxyethyl)piperazin-1-yl]methyl}-1H-imidazo[4,5-c]pyridin-1-yl)-3-{(1R)-1-[2-(trifluoromethyl)phenyl]ethoxy}thiophene-2-carboxamide], the pIC50 was greater than 8.00.

As to `NC(=O)c1sc(-n2cnc3ccncc32)cc1OCc1ccc(C(F)(F)F)cc1` [Example 28, 5-(3H-imidazo[4,5-c]pyridin-3-yl)-3-{[4-(trifluoromethyl)benzyl]oxy}thiophene-2-carboxamide], the pIC50 is 6.00 to 7.00.

Turning to `C[C@@H](Oc1cc(-n2cnc3cnc(CN4CCS(=O)(=O)CC4)cc32)sc1C(N)=O)c1ccccc1C(F)(F)F` [Example 63, 5-{6-[(1,1-dioxidothiomorpholin-4-yl)methyl]-1H-imidazo[4,5-c]pyridin-1-yl}-3-{(1R)-1-[2-(trifluoromethyl)phenyl]ethoxy}thiophene-2-carboxamide], the negative logarithm of the IC50 (pIC50) was 7.00 to 8.00.

As for `C[C@@H](Oc1cc(-n2cnc3cnc(CN4CCOCC4)cc32)sc1C(N)=O)c1ccccc1C(F)(F)F` [Example 62, 5-[6-(morpholin-4-ylmethyl)-1H-imidazo[4,5-c]pyridin-1-yl]-3-{(1R)-1-[2-(trifluoromethyl)phenyl]ethoxy}thiophene-2-carboxamide], the pIC50 was 7.00 to 8.00.

For `C[C@@H](Oc1cc(-n2cnc3cnc(CO)cc32)sc1C(N)=O)c1ccccc1F` [Example 55, 3-[(1R)-1-(2-fluorophenyl)ethoxy]-5-[6-(hydroxymethyl)-1H-imidazo[4,5-c]pyridin-1-yl]thiophene-2-carboxamide], the pIC50 was greater than 8.00.

For the molecule `NC(=O)c1sc(-n2cnc3cnccc32)cc1OCc1ccc(F)cc1C(F)(F)F` [Example 34, 3-{[4-fluoro-2-(trifluoromethyl)benzyl]oxy}-5-(1H-imidazo[4,5-c]pyridin-1-yl)thiophene-2-carboxamide], the pIC50 is 7.00 to 8.00.

Turning to `C[C@@H](Oc1cc(-n2cnc3cnc(CN4CCN(C(=O)N(C)C)CC4)cc32)sc1C(N)=O)c1ccccc1Br` [Example 133], the pIC50 is greater than 8.00.

For the molecule `CC(Oc1cc(-n2cnc3ccncc32)sc1C(N)=O)c1ccccc1Cl` (centres unmarked) [Example 12, 3-[1-(2-Chlorophenyl)ethoxy]-5-(3H-imidazo[4,5-c]pyridin-3-yl)thio-phene-2-carboxamide], the pIC50 was greater than 8.00.

In the case of `COc1cc2c(ncn2-c2cc(OCc3ccccc3C(F)(F)F)c(C(N)=O)s2)nc1OC` [Example 21A, 5-(5,6-Dimethoxy-1H-imidazo[4,5-b]pyridin-1-yl)-3-{[2-(trifluoromethyl)benzyl]oxy}thiophene-2-carboxamide], the pIC50 is 6.00 to 7.00.

With `C[C@@H](Oc1cc(-n2cnc3cnc(CN4CCC(N5CCN(C)CC5)CC4)cc32)sc1C(N)=O)c1ccccc1C(F)(F)F` [Example 89, 5-(6-{[4-(4-methylpiperazin-1-yl)piperidin-1-yl]methyl}-1H-imidazo[4,5-c]pyridin-1-yl)-3-{(1R)-1-[2-(trifluoromethyl)phenyl]ethoxy}thiophene-2-carboxamide], the pIC50 is 7.00 to 8.00.

Turning to `CC(Oc1cc(-n2cnc3cc(CN4CCN(C(=O)c5ccccc5)CC4)ncc32)sc1C(N)=O)c1ccccc1F` (centres unmarked) [Example 160, 5-{6-[(4-benzoylpiperazin-1-yl)methyl]3H-imidazo[4,5-c]pyridin-3-yl}-3-[-1-(2-fluorophenyl)ethoxy]thiophene-2-carboxamide], the pIC50 was 5.00 to 6.00.

`C[C@@H](Oc1cc(-n2cnc3cnc(CN4CCN(C)CC4)cc32)sc1C(N)=O)c1ccccc1F` [Example 101, 3-[(1R)-1-(2-fluorophenyl)ethoxy]-5-{6-[(4-methylpiperazin-1-yl)methyl]-1H-imidazo[4,5-c]pyridin-1-yl}thiophene-2-carboxamide]: the pIC50 is greater than 8.00.

With `C[C@@H](Oc1cc(-n2cnc3cnc(CN4CCN(CCO)CC4)cc32)sc1C(N)=O)c1ccccc1Cl` [Example 127, 3-[(1R)-1-(2-chlorophenyl)ethoxy]-5-(6-{[4-(2-hydroxyethyl)piperazin-1-yl]methyl}-1H-imidazo[4,5-c]pyridin-1-yl)thiophene-2-carboxamide], the pIC50 was greater than 8.00.

For `NC(=O)c1sc(-n2cnc3cnccc32)cc1OCc1ccccc1OC(F)(F)F` [Example 33, 5-(1H-imidazo[4,5-c]pyridin-1-yl)-3-{[2-(trifluoromethoxy)benzyl]oxy}thiophene-2-carboxamide], the pIC50 is 7.00 to 8.00.

Take `COc1cc2ncn(-c3cc(OCc4ccccc4C(F)(F)F)c(C(N)=O)s3)c2cn1` [Example 17, 5-(6-Methoxy-3H-imidazo[4,5-c]pyridin-3-yl)-3-{[2-(trifluoromethyl)benzyl]oxy}thiophene-2-carboxamide]: the pIC50 was 7.00 to 8.00.

As for `C[C@@H](Oc1cc(-n2cnc3cc(CO)ncc32)sc1C(N)=O)c1ccccc1C(F)(F)F` [Example 47, 5-[6-(hydroxymethyl)-3H-imidazo[4,5-c]pyridin-3-yl]-3-{(1R)-1-[2-(trifluoromethyl)phenyl]ethoxy}thiophene-2-carboxamide], the pIC50 is 7.00 to 8.00.

For `C[C@@H](Oc1cc(-n2cnc3cnc(CNC4CCC4)cc32)sc1C(N)=O)c1ccccc1C(F)(F)F` [Example 105, 5-{6-[(cyclobutylamino)methyl]-1H-imidazo[4,5-c]pyridin-1-yl}-3-{(1R)-1-[2-(trifluoromethyl)phenyl]ethoxy}thiophene-2-carboxamide], the pIC50 is 7.00 to 8.00.

Take `C[C@H](Oc1cc(-n2cnc3cnc(CO)cc32)sc1C(N)=O)c1ccccc1C(F)(F)F` [Example 46, 5-[6-(hydroxymethyl)-1H-imidazo[4,5-c]pyridin-1-yl]-3-{(1S)-1-[2-(trifluoromethyl)phenyl]ethoxy}thiophene-2-carboxamide]: the pIC50 is 6.00 to 7.00.

Take `COCCNC(=O)c1cc2c(cn1)ncn2-c1cc(OCc2ccccc2C(F)(F)F)c(C(N)=O)s1` [Example 4, 1-(5-Carbamoyl-4-{[2-(trifluoromethyl)benzyl]oxy}-2-thienyl)-N-(2-methoxyethyl)-1H-imidazo[4,5-c]pyridine-6-carboxamide]: the pIC50 is 6.00 to 7.00.

Consider `C[C@@H](Oc1cc(-n2cnc3cnc(CN4CCC(O)C4)cc32)sc1C(N)=O)c1ccccc1C(F)(F)F` (stereo partly drawn) [Example 94, 5-{6-[(3-hydroxypyrrolidin-1-yl)methyl]-1H-imidazo[4,5-c]pyridin-1-yl}-3-{(1R)-1-[2-(trifluoromethyl)phenyl]ethoxy}thiophene-2-carboxamide], for which the pIC50 was greater than 8.00.
